According to publication PMC5607274, “An iterative compound screening contest method for identifying target protein inhibitors using the tyrosine-protein kinase Yes” (Scientific Reports, 2017):

Target: T1, human recombinant Yes [a.a. 2–543 (end)] (Homo sapiens, UniProt P07947)
T1 construct: human recombinant Yes [a.a; 2–543 (end)]; purchased BPS Bioscience 40488
Assay: ADP-Glo kinase assay, inhibition rates of Yes phosphorylation activity (first and second screening)
Assay type: biochemical
Details: first screening; mean of n = 4 wells; 10 μmol L−1 compound
Procedure, shortened: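 ADP-Glo luminescence measured inhibition of human recombinant Yes (a.a. 2–543) phosphorylation activity. In the first screen, each compound ran in 4 wells and inhibition rates were averaged. The second screen retested hits as compounds dissolved from fresh powder.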

T1 sequence (P07947 2-543): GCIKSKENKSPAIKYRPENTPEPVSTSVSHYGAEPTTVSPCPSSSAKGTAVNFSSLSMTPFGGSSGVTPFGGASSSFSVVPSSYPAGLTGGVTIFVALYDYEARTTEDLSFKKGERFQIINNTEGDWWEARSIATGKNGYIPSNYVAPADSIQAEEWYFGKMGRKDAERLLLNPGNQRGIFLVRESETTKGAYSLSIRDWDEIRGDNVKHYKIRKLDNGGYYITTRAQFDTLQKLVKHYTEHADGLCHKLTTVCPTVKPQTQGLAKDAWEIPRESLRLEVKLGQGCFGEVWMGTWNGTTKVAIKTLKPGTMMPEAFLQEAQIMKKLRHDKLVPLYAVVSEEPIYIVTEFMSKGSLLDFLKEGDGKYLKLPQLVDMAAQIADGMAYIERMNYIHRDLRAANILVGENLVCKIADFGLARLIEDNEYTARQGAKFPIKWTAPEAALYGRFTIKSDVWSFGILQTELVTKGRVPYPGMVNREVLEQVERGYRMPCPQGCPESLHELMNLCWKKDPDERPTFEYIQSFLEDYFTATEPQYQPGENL

SMILES | First screening IR (inhibition rate) [%]
Oc1cncc(/C=C/c2nc(-c3ccc(Oc4ccc(F)cc4)nc3)no2)c1 [Compound Z1642148338] | -13
Cc1ccc(NC2CCN(Cc3ccncc3)CC2)c(CN(C)C)c1 [Compound Z1642185485] | 2
CC(Nc1ccc(Oc2cccc3cccnc23)cc1)C(N)=O (stereo not drawn) [Compound Z1651676792] | 6
O=C(COc1ccccc1F)NCc1ccc2[nH]c(=O)[nH]c2c1 [Compound Z1654002148] | 3
CC(O)C1CCN(C(=O)NCC2CC(C)N(Cc3ccccc3)C2)C1 (stereo not drawn) [Compound Z1658298345] | -9
OC1CCC(Nc2ncnc3cccc(I)c23)CC1 (stereo not drawn) [Compound Z1661333590] | 10
COc1cccc(-c2cc(-c3ccc(C)cc3)c3ccccc3n2)c1 [Compound Z1664164245] | -18
CC(NC(=O)c1ccc2[nH]cnc2n1)c1ccc(-c2cncnc2)cc1 (stereo not drawn) [Compound Z1669230171] | 8
CC(=O)[C@@H]1C[C@H](CC(=O)NCCc2ccn(-c3ccc(F)cc3)n2)C1(C)C [Compound Z1675157483] | 5
O=C(NCCN1CCc2ccccc2C1)Nc1ccncc1F [Compound Z1677754180] | 0
Cc1cnc(C)c(NCc2cccc(Cn3ccnc3C)c2)n1 [Compound Z1687428428] | 9
CN(C)S(=O)(=O)CCCS(=O)(=O)N(C)C1CCC1 [Compound Z1720728610] | -6
c1ccc(-c2nc(NCc3ccc(-n4cncn4)cc3)no2)cc1 [Compound Z1722673239] | -10
Cn1ccnc1C(O)(CCNC(=O)c1cccc(-c2cnc3[nH]c(=O)n(C)c3c2)c1)C(F)(F)F (stereo not drawn) [Compound Z1723428243] | 17
C/C(=C/c1ccc2ncccc2c1)c1cnccn1 [Compound Z1728623559] | 2
CC1CC(CNC(=O)c2ccc(O)cc2F)CN1Cc1ccccc1 (stereo not drawn) [Compound Z1735017324] | 2
Cn1cncc1CC(=O)Nc1ccc2nc(-c3cc(F)ccc3F)[nH]c2c1 [Compound Z1737110153] | 6
CSc1ccc(C(C)N2CCCC(C(=O)N3CCOCC3)C2)cc1F (stereo not drawn) [Compound Z1742902065] | 26
Cc1nccn1Cc1ccc(NC(=O)c2ncccc2O)cc1 [Compound Z1746485864] | 55
CNc1nc(NC2CCOC2c2ccc(F)c(F)c2)ncc1Br (stereo not drawn) [Compound Z1765170433] | 3
Cc1cc(N2CCN(C(=O)c3cc(Br)cn3C(C)C)CC2)n[nH]1 [Compound Z1784719533] | -5
C#CC(COC)NS(=O)(=O)CCCS(C)(=O)=O (stereo not drawn) [Compound Z1787994415] | 4
Cc1nccn1-c1cncc(NCc2cc(-c3ccccc3)on2)n1 [Compound Z1798299891] | 19
CCNC(=O)c1ccc(NC(C)C(O)c2ccc(F)cc2)nc1 (stereo not drawn) [Compound Z1798329942] | 35
CN1CCC(N(c2ccccc2)S(=O)(=O)c2cc(Cl)cc3c2OCC3)CC1 [Compound Z1833465604] | 9
CNS(=O)(=O)c1ccc2c(c1)nc(-c1cc(C#N)n(C)c1)n2C [Compound Z1837787694] | -2
COc1cccc(-c2cc(-c3ccc(Cl)cc3)c3ccccc3n2)c1 [Compound Z1844441844] | 48
C#CC(C)(C)N(C)S(=O)(=O)c1ccc(S(C)(=O)=O)cc1 [Compound Z1911236831] | -10
CC(CNC(=O)c1ncncc1Br)CN1CCN(C)CC1 (stereo not drawn) [Compound Z1936607769] | -11
O=c1[nH]c2cc(Cl)ccc2c(-c2ccccc2)c1CN1CCCCC1 [Compound Z1980444406] | 1

Continued, values first:

First screening IR (inhibition rate) [%] | SMILES
3 | COc1ccc(-c2noc(/C=C/c3cncc(O)c3)n2)cc1 [Compound Z1642148255]
7 | COC(=O)Nc1ccc(NC(=O)C2CC2c2ccc(C(C)C)cc2)cc1F (stereo not drawn) [Compound Z1646916001]
7 | CC(C)(C)n1ncc2c(NCCc3nnc4n3CCCC4)ncnc21 [Compound Z1661117530]
29 | CCCCn1nc(C)c(C(=O)N2CCC(C)(CN3CCN(C)CC3)CC2)c1Cl [Compound Z1667221615]
6 | Cc1cc(F)cc2[nH]c(C(=O)NC3CN(C(=O)OC(C)(C)C)CC3C#N)cc12 (stereo not drawn) [Compound Z1671371372]
48 | CC1CCN(c2nc(N)nc3nc[nH]c23)CCN1Cc1ccccc1 (stereo not drawn) [Compound Z1675288656]
19 | O=C(NCCCc1c[nH]c2ccccc12)Nc1ccncc1F [Compound Z1677751393]
4 | O=C(NCc1cnn(Cc2ccccc2)c1)Nc1ccncc1F [Compound Z1677761301]
2 | COc1ccc(Br)c(CN(C)C(C)C2CCN(C)CC2)c1 (stereo not drawn) [Compound Z1682981267]
0 | NC(=O)C(Nc1cnn(Cc2ccccc2)c1)c1ccc(F)cc1 (stereo not drawn) [Compound Z1686719326]
15 | Cc1cnc(CCSc2ncc(-c3ccc(F)cc3)o2)cn1 [Compound Z1688195829]
-9 | CN(C)c1ccc(NC(=O)N(C)C2CS(=O)(=O)c3ccc(Cl)cc32)cn1 (stereo not drawn) [Compound Z1688689058]
60 | Nc1nc(N2CC=C(c3ccccc3F)CC2)c2[nH]cnc2n1 [Compound Z1699229618]
-12 | CC(C)COCCCNS(=O)(=O)CCCS(=O)(=O)N(C)C [Compound Z1702883776]
-9 | O=C(O)c1cccc(/C=C/c2ccnnc2)c1 [Compound Z1728621359]
8 | Oc1cncc(/C=C/c2nc(-c3ccncc3)no2)c1 [Compound Z1739342675]
3 | CC(C)Oc1cc(CN(c2ncnc3c2cnn3C)C2CC2)ccn1 [Compound Z1739489055]
37 | CNC(=O)c1cccc(NCc2cc(C)ccc2O)n1 [Compound Z1743524859]
-20 | CC1(NC(=O)OC(C)(C)C)CCN(C(=O)c2cc3c(cc2O)CCCC3)CC1 [Compound Z1769013356]
-3 | CC(C)c1ccc(-n2cc(O)c(C(=O)NCC(C)N3CCCCC3=O)n2)cc1 (stereo not drawn) [Compound Z1820642882]
-9 | Cc1occc1S(=O)(=O)CCCS(=O)(=O)C(C)C [Compound Z1822689954]
-51 | O=[N+]([O-])c1ccc(N2CCC(C(O)c3ncc[nH]3)CC2)nc1-c1ccccc1 (stereo not drawn) [Compound Z1823608663]
7 | CN(c1cc(C#N)ccn1)S(=O)(=O)c1ccccc1S(C)(=O)=O [Compound Z1833478806]
9 | Cc1ccc(-c2cc(-c3cccc(C)c3)nc3ccccc23)cc1 [Compound Z1844441892]
0 | Cc1ccc(-c2cc(-c3cccc(Br)c3)nc3ccccc23)cc1 [Compound Z1847669462]
1 | CC(C)c1ccc(Sc2ccc(N3CCC(C(=O)O)CC3)nn2)cc1 [Compound Z1863492097]
-18 | C#CCN(C)S(=O)(=O)c1cc(S(C)(=O)=O)sc1Cl [Compound Z1863649257]
